Drawing on ChEMBL document CHEMBL6071155, “Discovery of selective Orai channel blockers bearing an indazole or a pyrazole scaffold” (Eur J Med Chem, 2024), this text covers inhibition, Activity and IC50 for 25 compounds.

One may read the inhibition as the relative decrease from the control value, in per cent. What is called IC50 is the concentration that gives 50% inhibition.

Activity calls are given as the source filed them. The calls are words filed in the database; no cut-off is given here.

The test system of series [1] is Calcium release-activated calcium channel protein 1 (Homo sapiens), Q96D31 [G98S]. Description: Reversible inhibition of myc-tagged human Orai-1 G98S mutant expressed in HEK293 cells assessed as reduction in inward current at 10 uM measured upto 6 mins by patch clamp electrophysiology. The format is cell-based. (In general: The patch-clamp technique gives a direct electrical read-out from membranes.)

For the next series, the system named is Jurkat T. Description: Inhibition of NFAT (unknown origin) activation transfected in human Jurkat T cells expressing firefly luciferase gene at 10 uM preincubated with compound for 30 mins followed by PMA/ionomysin addition and measured after 18 hrs by luminometer relative to control. The note with it: time 18.5 hrs. In kind it is cell-based.
In series [2] the target is Transient receptor potential cation channel subfamily M member 4 (Homo sapiens) (UniProt Q8TD43). Briefly: Activation of GFP-tagged human TRPM4 transfected in HEK293 cells at 10 uM by patch clamp electrophysiology. The format is cell-based. To be noted: filed as opener.
The subject of series [3] is Jurkat. Description: Cytotoxicity against human Jurkat T cells assessed as cell killing at 30 uM incubated for 48 hrs by trypan blue exclusion method relative to control. In kind it is toxicity, cell-based.
For series [4], the system named is Jurkat. Briefly: Cytotoxicity against human Jurkat T cells assessed as decrease in cell viability at 30 uM incubated for 48 hrs by trypan blue exclusion method. The format is toxicity, cell-based.
Series [5] has as its system Calcium release-activated calcium channel protein 1 (Homo sapiens), Q96D31 [G98S]. Description: Inhibition of myc-tagged human orai-1 G98S mutant expressed in HEK293 cells assessed as decrease in inward current at 30 uM by patch clamp electrophysiology technique relative to control. The format is cell-based.
Series [6] deals with Transient receptor potential cation channel subfamily M member 4 (Homo sapiens) (UniProt Q8TD43). Description: Activation of GFP-tagged human TRPM4 transfected in HEK293 cells at 30 uM by patch clamp electrophysiology. In kind it is cell-based.
The nature of series [7]: Inhibition of Store-operated calcium entry (SOCE) in phytohemagglutinin-stimulated human Jurkat T cells at 30 uM in presence of Ca2+ by fura-2 dye based calcium imaging analysis relative to control. The format is functional.
For series [8], the target named is Transient receptor potential cation channel subfamily M member 7 (Homo sapiens) (UniProt Q96QT4). Description: Activation of TRPM7 in human Jurkat T cells at 30 uM by patch clamp electrophysiology. In kind it is cell-based.
The subject of series [9] is Jurkat. Briefly: (§1) Inhibition of Store-operated calcium entry (SOCE) in phytohemagglutinin-stimulated human Jurkat T cells in presence of Ca2+ by fura-2 dye based calcium imaging analysis. In kind it is functional, cell-based.
Series [10] is described as follows: as §1. The format is functional, cell-based.
In series [11] the test system is Calcium release-activated calcium channel protein 1 (Homo sapiens), Q96D31 [G98S]. Description: (§2) Inhibition of myc-tagged human orai-1 G98S mutant expressed in HEK293 cells assessed as decrease in inward current by patch clamp electrophysiology technique. In kind it is cell-based. The note with it: dose 1-30 µM.
Series [12] has as its target Calcium release-activated calcium channel protein 1 (Homo sapiens, UniProt Q96D31, G98S). The description is as §2. In kind it is cell-based.

Chain of Calcium release-activated calcium channel protein 1 (Homo sapiens), Q96D31 [G98S] (Q96D31 whole entry G98S): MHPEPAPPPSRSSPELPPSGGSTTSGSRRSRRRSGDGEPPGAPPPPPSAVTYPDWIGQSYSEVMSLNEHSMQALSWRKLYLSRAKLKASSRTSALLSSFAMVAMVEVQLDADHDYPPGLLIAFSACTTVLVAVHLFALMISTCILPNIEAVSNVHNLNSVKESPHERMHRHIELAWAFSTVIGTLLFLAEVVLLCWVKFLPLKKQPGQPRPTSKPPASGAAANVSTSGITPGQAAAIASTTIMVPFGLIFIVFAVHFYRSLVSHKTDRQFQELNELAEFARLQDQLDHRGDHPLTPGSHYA
Chain of Transient receptor potential cation channel subfamily M member 4 (Homo sapiens) (Q8TD43 whole entry): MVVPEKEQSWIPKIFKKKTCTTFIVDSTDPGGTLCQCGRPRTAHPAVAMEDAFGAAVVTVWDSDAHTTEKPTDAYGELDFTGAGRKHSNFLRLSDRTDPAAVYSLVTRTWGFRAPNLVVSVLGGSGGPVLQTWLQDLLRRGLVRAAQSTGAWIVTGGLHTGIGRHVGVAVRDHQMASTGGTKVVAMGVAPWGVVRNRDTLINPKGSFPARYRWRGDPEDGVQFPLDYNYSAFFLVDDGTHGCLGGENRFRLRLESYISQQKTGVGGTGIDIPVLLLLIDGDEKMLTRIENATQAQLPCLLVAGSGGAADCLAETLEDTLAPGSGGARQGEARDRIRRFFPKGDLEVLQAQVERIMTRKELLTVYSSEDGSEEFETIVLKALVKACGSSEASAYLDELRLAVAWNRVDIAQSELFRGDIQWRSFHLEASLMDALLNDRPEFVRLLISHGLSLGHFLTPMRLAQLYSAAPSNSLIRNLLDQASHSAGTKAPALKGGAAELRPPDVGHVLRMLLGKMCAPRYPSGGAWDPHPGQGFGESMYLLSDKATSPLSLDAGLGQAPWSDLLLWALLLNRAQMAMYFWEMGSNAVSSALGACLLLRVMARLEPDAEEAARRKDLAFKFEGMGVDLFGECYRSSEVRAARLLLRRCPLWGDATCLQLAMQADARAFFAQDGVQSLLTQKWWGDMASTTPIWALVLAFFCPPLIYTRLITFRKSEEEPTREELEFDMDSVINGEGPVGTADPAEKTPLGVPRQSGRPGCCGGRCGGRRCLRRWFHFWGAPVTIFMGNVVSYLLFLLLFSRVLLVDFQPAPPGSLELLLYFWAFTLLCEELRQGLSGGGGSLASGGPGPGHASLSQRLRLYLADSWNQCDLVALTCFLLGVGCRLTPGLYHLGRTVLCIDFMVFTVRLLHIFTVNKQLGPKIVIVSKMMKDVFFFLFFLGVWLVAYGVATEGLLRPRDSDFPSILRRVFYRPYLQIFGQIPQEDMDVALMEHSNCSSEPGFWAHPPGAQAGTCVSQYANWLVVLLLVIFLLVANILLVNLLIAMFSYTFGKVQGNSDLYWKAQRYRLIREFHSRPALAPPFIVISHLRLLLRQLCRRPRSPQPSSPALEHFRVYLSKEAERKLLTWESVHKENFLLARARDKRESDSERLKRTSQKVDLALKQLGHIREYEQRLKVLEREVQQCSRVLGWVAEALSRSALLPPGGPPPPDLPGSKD
Chain of Transient receptor potential cation channel subfamily M member 7 (Homo sapiens) (Q96QT4 whole entry): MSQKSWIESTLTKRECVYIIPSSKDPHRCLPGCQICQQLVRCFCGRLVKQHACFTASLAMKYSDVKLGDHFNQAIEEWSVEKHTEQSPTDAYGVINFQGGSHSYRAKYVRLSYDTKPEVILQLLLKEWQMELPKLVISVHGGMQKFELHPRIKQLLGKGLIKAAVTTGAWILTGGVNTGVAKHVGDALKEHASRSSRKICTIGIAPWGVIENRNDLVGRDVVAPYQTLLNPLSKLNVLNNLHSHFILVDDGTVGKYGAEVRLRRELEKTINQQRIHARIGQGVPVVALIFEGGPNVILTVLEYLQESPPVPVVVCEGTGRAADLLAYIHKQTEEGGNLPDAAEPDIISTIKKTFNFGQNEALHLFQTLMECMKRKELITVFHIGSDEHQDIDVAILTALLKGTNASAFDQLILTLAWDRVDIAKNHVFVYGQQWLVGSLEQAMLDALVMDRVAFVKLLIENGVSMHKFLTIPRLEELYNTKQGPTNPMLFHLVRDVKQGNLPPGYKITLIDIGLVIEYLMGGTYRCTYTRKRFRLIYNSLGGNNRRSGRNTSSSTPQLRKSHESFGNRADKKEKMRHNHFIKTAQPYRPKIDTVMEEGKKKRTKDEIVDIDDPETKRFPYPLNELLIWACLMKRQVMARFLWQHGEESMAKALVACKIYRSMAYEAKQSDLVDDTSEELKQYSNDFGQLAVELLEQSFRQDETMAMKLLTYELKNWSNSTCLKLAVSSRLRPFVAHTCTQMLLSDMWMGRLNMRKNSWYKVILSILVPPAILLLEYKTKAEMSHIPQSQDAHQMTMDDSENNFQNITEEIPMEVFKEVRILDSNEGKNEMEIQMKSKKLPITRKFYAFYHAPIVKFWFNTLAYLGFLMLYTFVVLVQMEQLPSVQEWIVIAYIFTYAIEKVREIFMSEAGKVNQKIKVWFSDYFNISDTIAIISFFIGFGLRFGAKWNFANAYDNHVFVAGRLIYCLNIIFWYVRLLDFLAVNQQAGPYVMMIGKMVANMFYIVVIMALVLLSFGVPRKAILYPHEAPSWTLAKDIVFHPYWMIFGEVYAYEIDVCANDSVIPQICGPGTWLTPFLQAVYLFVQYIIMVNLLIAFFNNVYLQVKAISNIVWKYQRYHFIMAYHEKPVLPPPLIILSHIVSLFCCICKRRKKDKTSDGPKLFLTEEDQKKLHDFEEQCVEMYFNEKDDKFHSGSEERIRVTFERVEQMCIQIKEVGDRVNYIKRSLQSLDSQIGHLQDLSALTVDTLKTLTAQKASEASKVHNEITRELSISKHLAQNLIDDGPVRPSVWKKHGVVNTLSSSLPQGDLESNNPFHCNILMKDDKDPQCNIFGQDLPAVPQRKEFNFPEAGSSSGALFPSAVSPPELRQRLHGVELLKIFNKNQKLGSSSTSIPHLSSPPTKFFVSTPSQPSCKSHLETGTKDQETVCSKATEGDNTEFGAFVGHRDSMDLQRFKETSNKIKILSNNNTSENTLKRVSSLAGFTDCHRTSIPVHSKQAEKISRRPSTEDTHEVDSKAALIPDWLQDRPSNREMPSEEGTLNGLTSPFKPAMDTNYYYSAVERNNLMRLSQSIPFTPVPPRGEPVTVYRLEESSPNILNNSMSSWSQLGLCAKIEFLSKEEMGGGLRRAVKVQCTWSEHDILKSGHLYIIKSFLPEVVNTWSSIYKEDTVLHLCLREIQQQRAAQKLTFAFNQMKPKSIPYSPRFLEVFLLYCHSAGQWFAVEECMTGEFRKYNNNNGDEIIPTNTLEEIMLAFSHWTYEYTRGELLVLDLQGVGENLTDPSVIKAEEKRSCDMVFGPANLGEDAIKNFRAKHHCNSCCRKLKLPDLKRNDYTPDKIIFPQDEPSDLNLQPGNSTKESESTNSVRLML
Chain of Calcium release-activated calcium channel protein 1 (Q96D31 whole entry G98S): as the sequence (Q96D31 whole entry G98S) above

As for `O=C(Nc1ccncc1F)c1nn(CC2CC2)c2ncccc12`, in series [1], the inhibition entry is “Active”. Further, the inhibition in the series on Jurkat T was 64.6%.

For the compound `O=C(Nc1ccncc1F)c1nn(CC2CC2)c2ccc(Br)cc12`, the inhibition with Jurkat T turned out to be 58.6%. Regarding `O=C(Nc1c(F)cccc1F)c1ccn(CC2CC2)n1`, in the series on Jurkat T, the inhibition result is “inactive”. As to `O=C(Nc1ccncc1F)c1nn(CC2CCC2)c2ccccc12`, the inhibition in the series with Jurkat T stood at 80.5%.

Turning to `O=C(Nc1ccncc1F)c1nn(CC2CC2)c2c1CCCC2`, the inhibition in the series on Jurkat T turned out to be 87.3%. With `Cc1cnccc1NC(=O)c1nn(CC2CC2)c2ccccc12`, the inhibition in the series on Jurkat T was determined as 86.9%. As for `O=C(Nc1ccncc1F)c1nn(CC2CCC2)c2c1CCCC2`, the inhibition with Jurkat T is 92.8%. On to `O=C(Nc1ccncc1F)c1nn(CC2CC2)c2ccc(F)cc12`, for which the inhibition with Jurkat T was 77.3%.

As for `Cc1cnccc1NC(=O)c1ccn(CC2CC2)n1`, the inhibition in the series with Jurkat T was 61.3%. Turning to `Cc1cnccc1NC(=O)c1nn(CC2CC2)c2c1CCC2`, the inhibition with Jurkat T was found to be 55.5%. For the compound `Cc1nnsc1C(=O)Nc1ccc(-n2nc(C(F)(F)F)cc2C(F)(F)F)cc1`, the outcome in [2] was Active. Further, in the series on Jurkat [3], the Activity is given as ~ 80%. `O=C(Nc1ccncc1F)c1nn(CC2CCCC2)c2ccccc12`: the inhibition in the series with Jurkat T worked out at 95.4%.

As to `O=C(Nc1ccncc1F)c1nn(CC2CC2)c2cc(F)ccc12`, the inhibition in the series on Jurkat T amounted to 96.1%. The same measure, in the same setting: the result for `O=C(Nc1ccncc1F)c1ccn(CC2CC2)n1` reads 60.2%. Turning to `O=C(Nc1ccncc1F)c1nn(CC2CC2)c2ccccc12`, in the series on Jurkat [4], the Activity entry is reported as “Non-Toxic”. The inhibition in series [5] is 100%; in the series with Jurkat T, 97.9%; with Jurkat [9], “Dose-Dependent Effect”; in series [11], “Dose-Dependent Effect”. For the same compound, the outcome in series [6] and in series [8] was inactive. Further, the inhibition at 30 µM in series [7] was found to be 100%. Moreover, in series [1], the inhibition entry is “Active”. Moreover, the IC50 amounted to 10 µM in [10] and 4.9 µM in [12]. Turning to `O=C(Nc1ccncc1F)c1nn(CC2CC2)c2c1CCC2`, in the series with Jurkat T, the inhibition amounted to 63.6%. `O=C(Nc1ccncc1F)c1nn(C(=O)C2CC2)c2ccccc12`: the inhibition in the series with Jurkat T is 76.8%.

Turning to `O=C(Nc1c(F)cccc1F)c1nn(CC2CC2)c2c1CCCC2`, the inhibition in the series on Jurkat T was found to be 53.9%. Still for that read-out and setting: the result for `O=C(Nc1ccncc1F)c1nn(CC2CCCCC2)c2ccccc12` reads 88.4%; that for `O=C(Nc1ccncc1F)c1nn(CC2CC2)c2cc(Cl)ccc12`, 51.9%; that for `Cc1cnccc1NC(=O)c1nn(CC2CCC2)c2ccccc12`, 92.4%. For `Cc1ccc2c(c1)c(C(=O)Nc1ccncc1F)nn2CC1CC1`, the inhibition in the series with Jurkat T was 81.9%.

Regarding `Cc1cnccc1NC(=O)c1nn(CC2CCC2)c2c1CCCC2`, in the series with Jurkat T, the inhibition stood at 92.6%. `Cc1cnccc1NC(=O)c1nn(CC2CC2)c2c1CCCC2`: the inhibition in the series with Jurkat T was 88.7%. For `O=C(Nc1ccncc1F)c1nn(CC2CC2)c2c(F)cccc12`, the inhibition in the series on Jurkat T is 48.5%.
